The values below come from publication PMC6608569 (Bioorganic & medicinal chemistry letters, 2019).

Molecules are shown by their SMILES.

The target of one assay is GRP78 (Homo sapiens, UniProt P11021). The assay is described as follows: Fluorescence polarization FITC-NRLLLTG peptide. As to conditions: peptide binding assay, 8-point dose responses. (In general: In fluorescence polarisation assays a small probe gives low polarisation when free and higher when bound to something large.)
Assay [1] relates to HCT116 cells. The assay is described as follows: Unfolded protein response markers by immunoblot. It counts as cell-based. As to conditions: 16 hours, three concentrations. A general note: A western blot detects proteins with antibodies after separation by electrophoresis.
For assay [2], the system named is HCT116 cells. The assay is described as follows: Annexin V / propidium iodide flow cytometry. It counts as cell-based. In general terms: Flow cytometry measures light scatter and fluorescence of single cells or particles in a stream.

Sequence of GRP78 (P11021 26-636): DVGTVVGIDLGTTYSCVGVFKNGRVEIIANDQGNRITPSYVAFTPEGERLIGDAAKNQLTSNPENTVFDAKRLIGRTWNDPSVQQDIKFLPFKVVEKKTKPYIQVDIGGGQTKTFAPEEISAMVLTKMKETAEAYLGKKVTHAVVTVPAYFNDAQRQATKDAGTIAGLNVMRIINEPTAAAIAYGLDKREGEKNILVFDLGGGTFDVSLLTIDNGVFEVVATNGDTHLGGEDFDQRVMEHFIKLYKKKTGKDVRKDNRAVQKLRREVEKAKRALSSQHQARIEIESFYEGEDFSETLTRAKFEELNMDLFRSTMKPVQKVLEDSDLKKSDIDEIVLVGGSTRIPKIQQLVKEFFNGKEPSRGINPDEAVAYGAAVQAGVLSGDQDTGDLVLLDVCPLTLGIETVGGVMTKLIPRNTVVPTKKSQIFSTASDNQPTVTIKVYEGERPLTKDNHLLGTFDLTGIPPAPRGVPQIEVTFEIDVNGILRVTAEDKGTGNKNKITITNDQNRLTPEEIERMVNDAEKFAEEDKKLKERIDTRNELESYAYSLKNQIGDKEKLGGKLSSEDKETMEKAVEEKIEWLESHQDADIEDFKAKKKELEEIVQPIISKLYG

Turning to `Oc1c(Cl)cc(Cl)c(Cl)c1Sc1c(O)c(Cl)cc(Cl)c1Cl` [compound 2], the “GRP78 inhibition, SAR result in words” value at GRP78 was “tolerated”.

Consider `Oc1ccc(Cl)cc1Cc1cc(Cl)ccc1O` [compound 5], for which, on GRP78, the “GRP78 inhibition, SAR result in words” value is “inactive”.

For `Oc1cc(Cl)ccc1Oc1ccc(Cl)cc1Cl` [compound 6], at GRP78, the “GRP78 inhibition, SAR result in words” value is recorded as “not tolerated”.

For the molecule `Oc1ccccc1Cc1ccccc1O` [compound 7], the “GRP78 inhibition, SAR result in words” value on GRP78 is “inactive”.

In the case of `CCc1cc(Cc2cc(CC)cc(C(C)(C)C)c2O)c(O)c(C(C)(C)C)c1` [compound 8], the “GRP78 inhibition, SAR result in words” value on GRP78 is on record as “not tolerated”.

As to `O=C(Nc1cc(Cl)cc(Cl)c1O)c1c(O)c(Cl)cc(Cl)c1Cl` [compound 9], on GRP78, the “GRP78 inhibition, SAR result in words” value is “not tolerated”.

`Cc1cc(Cc2cc(C)cc(C(C)(C)C)c2O)c(O)c(C(C)(C)C)c1` [compound 10]: the “GRP78 inhibition, SAR result in words” value at GRP78 is recorded as “not tolerated”.

Consider `Oc1c(Cl)cc(Cl)c(Cl)c1Cc1c(O)c(Cl)cc(Cl)c1Cl` [hexachlorophene], for which the “induction of UPR markers (XBP1s, ATF4, CHOP)” value in the assay with HCT116 cells [1] is reported as “dose dependent induction”. The “percentage of apoptotic cells (annexin V staining only) versus Taxol control” value with HCT116 cells [2] (10 μM, 24 hours) is recorded as “same percentage of apoptotic cells”. Further, the “percentage of apoptotic cells versus Taxol control” value in the assay on HCT116 cells [2] (25 μM, 24 hours) was “larger percentage of apoptotic cells than the Taxol control”. Also, the “mechanism of cell death” value in the assay with HCT116 cells [2] (5, 10, or 25 μM, dose and time course) was “apoptotic cell death in a dose (Figure 6A) and time (Figure 6B) dependent manner”. For the same molecule, in the assay with HCT116 cells [2] (time course), the “time of peak early apoptosis (annexin V positive and PI negative)” value is listed as “about 24 hours”; the “time of peak late stage apoptosis (Annexin V and PI positive)” value is 36 h.
